Where “and” joins values, the source holds several entries; their conditions need not be identical. Equal entries are not always repeated. Where two headings read alike, the source gives them in different places.
Columns and labels:
OCT3 = molecular target: T1, OCT3 (Homo sapiens, UniProt O75751); test: Inhibition of model substrate uptake in OCT3-overexpressing HEK293 cells; assay type: cell-based; settings: for IC50: read-out: IC50; for x-fold Stereoselectivity: ratio of the IC50 values of the two enantiomers of the drug
T1 construct: expressed in transfected cells; host or cells: HEK293
T1 sequence (O75751 1-556): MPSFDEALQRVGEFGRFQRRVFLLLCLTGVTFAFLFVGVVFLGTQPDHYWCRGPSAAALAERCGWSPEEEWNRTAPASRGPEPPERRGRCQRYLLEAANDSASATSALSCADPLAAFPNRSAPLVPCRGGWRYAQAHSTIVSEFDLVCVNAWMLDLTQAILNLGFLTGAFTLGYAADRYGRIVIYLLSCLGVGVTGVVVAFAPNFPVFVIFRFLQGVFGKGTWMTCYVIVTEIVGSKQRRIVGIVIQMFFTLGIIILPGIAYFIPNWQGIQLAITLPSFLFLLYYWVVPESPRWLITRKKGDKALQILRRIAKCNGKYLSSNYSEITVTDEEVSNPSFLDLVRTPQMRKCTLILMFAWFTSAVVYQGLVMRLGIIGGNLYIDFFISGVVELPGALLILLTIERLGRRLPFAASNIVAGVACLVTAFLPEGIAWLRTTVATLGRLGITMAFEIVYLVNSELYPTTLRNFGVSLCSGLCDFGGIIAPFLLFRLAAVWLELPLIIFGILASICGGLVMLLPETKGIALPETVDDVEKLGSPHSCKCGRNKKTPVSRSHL
Method: (§1) All experiments were carried out in transporter-overexpressing HEK293 cells. OCT1-, OCT2-, NET-, DAT-, and SERT-overexpressing cells as well as the empty-vector transfected control cell line were generated as described earlier,[26]−[28] whereas the OCT3-overexpressing HEK293 cells were generous gift of from Drs. Koepsell and Gorbulev (University of Würzburg, Germany). All cells were cultivated in Dulbecco’s modified Eagle’s medium (DMEM) supplemented with 10% (v/v) FCS, penicillin (100 U/mL), and streptomycin (100 μg/mL) and kept in culture for no longer than 30 passages.
(§2) As for the transport experiments, 300,000 HEK293 cells were plated in poly-D-lysine-coated 24-well plates 2 days ahead of the experiment. On every plate, two wells of empty vector (EV)-transfected cells were used as a control to account for the passive influx of the model substrate, and two wells of transporter-overexpressing cells were used to determine the noninhibited uptake of the model substrate. Cells were initially washed once with 37 °C HBSS+ and then incubated with 2 μM model substrate (0.2 μM for MPP^+ uptake by MATs) with and without 20 μM inhibitor for 5 min. For concentration-dependent inhibition experiments, the cells were incubated with increasing inhibitor concentrations. The incubation was terminated by aspiration of the buffer before cells were washed twice with ice-cold HBSS+ and lysed in 80% acetonitrile. Cell lysates were transferred into a black 96-well plate for the fluorescence measurement of ASP^+ or used for sample preparation for LC–MS/MS analysis. […] Fluorescence quantification was performed in technical duplicates.
(§3) Transporter-mediated net uptake was calculated as the difference between uptake in transporter-overexpressing cells and that in the empty-vector-transfected control. […] Vmax is the maximum transport velocity, while Km is defined as the substance concentration that is required to reach half of vmax. The ratio of vmax over Km is termed intrinsic clearance Clint. For inhibition experiments, the transport activity was calculated by using the following equation [drawing 1]
(§4) SubstrateEV refers to the passive uptake of model substrates into the control cells and substratenoninhibited is the uptake in transporter-overexpressing cells without the presence of any inhibitor. The percent inhibition values are then calculated as described in the following [drawing 2]
(§5) For concentration inhibition experiments, the transporter activity was plotted against the log10 of inhibitor concentrations, and the data were fitted by the following equation to determine IC50 values [drawing 3]
(§6) Y refers to the transporter activity, whereas Ymax is the maximum and Ymin is the minimal transporter activity. X is the log10 of inhibitor concentrations, IC50 is the half-maximal inhibitory concentration, and hill slope is the slope factor.

OCT1 = molecular target: T2, OCT1 (Homo sapiens, UniProt O15245); test: Inhibition of model substrate uptake in OCT1-overexpressing HEK293 cells; assay type: cell-based; design: expressed in transfected cells; host or cells: HEK293; settings: for ASP+ inhibition [%]: OCT1, 20 μM inhibitor, 2 μM ASP+, 5 min, mean of three experiments; for selectivity ratio at 5 min: OCT1-overexpressing HEK293 cells, pH 7.4, OCT1, ratio of the IC50 values of the two enantiomers of the drug, read-out: x-fold Stereoselectivity
T2 sequence (O15245 1-554): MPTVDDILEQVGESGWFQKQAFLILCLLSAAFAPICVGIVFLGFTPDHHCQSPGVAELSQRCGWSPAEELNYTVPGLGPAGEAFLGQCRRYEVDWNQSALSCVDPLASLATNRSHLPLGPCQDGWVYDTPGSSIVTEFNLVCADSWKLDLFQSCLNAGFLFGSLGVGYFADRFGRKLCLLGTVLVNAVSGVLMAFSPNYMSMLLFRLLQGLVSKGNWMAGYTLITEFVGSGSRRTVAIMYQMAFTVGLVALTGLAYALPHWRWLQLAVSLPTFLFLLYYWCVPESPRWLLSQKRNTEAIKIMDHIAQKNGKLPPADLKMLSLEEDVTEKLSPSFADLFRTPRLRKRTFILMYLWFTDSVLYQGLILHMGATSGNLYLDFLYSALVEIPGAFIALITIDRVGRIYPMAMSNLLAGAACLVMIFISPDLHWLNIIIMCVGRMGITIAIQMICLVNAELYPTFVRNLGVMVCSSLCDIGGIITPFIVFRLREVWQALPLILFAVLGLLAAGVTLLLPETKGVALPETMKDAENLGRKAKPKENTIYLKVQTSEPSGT
Method: Koepsell and Gorbulev (University of Würzburg, Germany).
Fluorescence quantification was performed in technical duplicates.

OCT2 = molecular target: T3, OCT2 (Homo sapiens, UniProt O15244); test: Inhibition of model substrate uptake in OCT2-overexpressing HEK293 cells; settings: for IC50: IC50, OCT2, Table S5, 2 μM ASP+ as model substrate, 5 min; for selectivity ratio at 5 min: OCT2-overexpressing HEK293 cells
T3 sequence (O15244 1-555): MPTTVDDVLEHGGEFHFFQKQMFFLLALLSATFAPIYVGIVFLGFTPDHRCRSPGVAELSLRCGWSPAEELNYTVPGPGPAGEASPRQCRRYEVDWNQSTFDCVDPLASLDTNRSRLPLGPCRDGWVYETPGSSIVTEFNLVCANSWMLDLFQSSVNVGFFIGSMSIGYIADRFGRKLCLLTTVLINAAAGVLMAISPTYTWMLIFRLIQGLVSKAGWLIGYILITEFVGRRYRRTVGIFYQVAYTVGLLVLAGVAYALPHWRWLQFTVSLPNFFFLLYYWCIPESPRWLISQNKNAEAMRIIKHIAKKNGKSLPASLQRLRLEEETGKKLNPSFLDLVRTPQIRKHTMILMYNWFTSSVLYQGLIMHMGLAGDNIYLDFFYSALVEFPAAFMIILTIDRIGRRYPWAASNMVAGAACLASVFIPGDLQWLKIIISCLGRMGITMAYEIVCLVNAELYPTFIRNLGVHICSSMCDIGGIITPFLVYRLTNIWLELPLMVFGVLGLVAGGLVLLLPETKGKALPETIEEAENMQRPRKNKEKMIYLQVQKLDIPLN
Method: as §1, §2, §3, §4, §5, §6

[1] = OCT3, 20 μM inhibitor, 2 μM ASP+, 5 min
[2] = HEK293, 5 min, read-out: (S)-Zolmitriptan inhibition [%], OCT3, 20 μM inhibitor, 2 μM (S)-zolmitriptan, 5 min
[3] = HEK293, 5 min, read-out: (S,S)-Ethambutol inhibition [%], OCT3, 20 μM inhibitor, 2 μM (S,S)-ethambutol, 5 min
[4] = HEK293, OCT3, 20 μM inhibitor, 2 μM ASP+, 5 min, read-out: ASP+ inhibition [%]
[5] = HEK293, 5 min, read-out: (S)-Zolmitriptan inhibition [%]
[6] = HEK293, 5 min, read-out: (S,S)-Ethambutol inhibition [%]
[7] = OCT3, Table S5, 2 μM ASP+ or ethambutol as model substrate, 5 min
[8] = OCT3, model substrate 2 μM (S)-zolmitriptan, 5 min
[9] = OCT3, model substrate 2 μM (S,S)-ethambutol, 5 min
[10] = OCT3, model substrate 2 μM N-ethyllidocaine, 5 min
[11] = OCT3, 20 μM inhibitor, 2 μM (S,S)-ethambutol, 5 min
[12] = OCT3, 20 μM inhibitor, 2 μM (S)-zolmitriptan, 5 min
[13] = OCT2, ratio of the IC50 values of the two enantiomers of the drug

C1CCN2C[C@@H]3C[C@@H](CN4CCCC[C@@H]34)[C@H]2C1 [(-)-Sparteine]
(S)-Zolmitriptan inhibition [%] (OCT3): 11.0 | (S,S)-Ethambutol inhibition [%] (OCT3): 20.7 | ASP+ inhibition [%] (OCT3; [1]): 0.4%

CC(C)NC[C@@H](O)COc1ccc(CC(N)=O)cc1 [(R)-Atenolol]
inhibition at 20 µM (OCT3; [2]): 5.5% | inhibition at 20 µM (OCT3; [3]): 0.9% | inhibition at 20 µM (OCT3; [4]): 3.9%

CCN[C@H](C)Cc1cccc(C(F)(F)F)c1 [(R)-Fenfluramine]
inhibition at 20 µM (OCT3; [5]): 55.9% | inhibition at 20 µM (OCT3; [6]): 40.7% | inhibition at 20 µM (OCT3; [4]): 7.6% | ASP+ inhibition [%] (OCT1): 38.4%

CCCNC[C@@H](O)COc1ccccc1C(=O)CCc1ccccc1 [(R)-Propafenone]
inhibition at 20 µM (OCT3; [2]): 53.6% | inhibition at 20 µM (OCT3; [4]): 17.3%

Cc1ccc(O)c([C@H](CCN(C(C)C)C(C)C)c2ccccc2)c1 [(R)-Tolterodine]
IC50 (OCT2): 0.2 µM | inhibition at 20 µM (OCT3; [5]): 97.6% | IC50 (OCT3; [7]): 2300 nM | ASP+ inhibition [%] (OCT3; [1]): 94% | IC50 (OCT3; [8]): 570 nM | IC50 (OCT3; [9]): 390 nM | IC50 (OCT3; [10]): 230 nM | IC50 (OCT3): 170 nM

CNCC[C@@H](Oc1ccccc1C)c1ccccc1 [(R)-Tomoxetine]
IC50 (OCT2): 6.3 µM | inhibition at 20 µM (OCT3; [2]): 33.2% | (S,S)-Ethambutol inhibition [%] (OCT3; [11]): 39.0% | ASP+ inhibition [%] (OCT3; [1]): 1.1%

COc1ccc(CCN(C)CCC[C@](C#N)(c2ccc(OC)c(OC)c2)C(C)C)cc1OC [(R)-Verapamil]
inhibition at 20 µM (OCT3; [5]): 42.1% | inhibition at 20 µM (OCT3; [6]): 48.9% | inhibition at 20 µM (OCT3; [4]): 8.2%

CC(C)NC[C@H](O)COc1ccc(CC(N)=O)cc1 [(S)-Atenolol]
inhibition at 20 µM (OCT3; [2]): -3.8% | inhibition at 20 µM (OCT3; [3]): 2.9% | inhibition at 20 µM (OCT3; [4]): 0.9%

CCN[C@@H](C)Cc1cccc(C(F)(F)F)c1 [(S)-Fenfluramine]
(S)-Zolmitriptan inhibition [%] (OCT3): 51.9% | (S,S)-Ethambutol inhibition [%] (OCT3): 40.7% | ASP+ inhibition [%] (OCT3; [1]): 12.7% | ASP+ inhibition [%] (OCT1): 41.9% | Sumatriptan inhibition [%] (OCT1; human, pH 7.4): 87.1%

CCCNC[C@H](O)COc1ccccc1C(=O)CCc1ccccc1 [(S)-Propafenone]
(S)-Zolmitriptan inhibition [%] (OCT3; [12]): 62.0% | (S,S)-Ethambutol inhibition [%] (OCT3; [11]): 76.4% | ASP+ inhibition [%] (OCT3; [1]): 23.8%

Cc1ccc(O)c([C@@H](CCN(C(C)C)C(C)C)c2ccccc2)c1 [(S)-Tolterodine]
IC50 (OCT2): 0.13 µM | (S)-Zolmitriptan inhibition [%] (OCT3): 82.9 | (S,S)-Ethambutol inhibition [%] (OCT3): 89.8 | IC50 (OCT3; [7]): 25300 nM | ASP+ inhibition [%] (OCT3; [1]): 53.5% and 54% | IC50 (OCT3; [8]): 7000 nM | IC50 (OCT3; [9]): 6370 nM | IC50 (OCT3; [10]): 3100 nM | IC50 (OCT3; OCT3, model substrate 2 μM famotidine, 5 min): 2310 nM

CNCC[C@H](Oc1ccccc1C)c1ccccc1 [(S)-Tomoxetine]
IC50 (OCT2): 17.1 µM | (S)-Zolmitriptan inhibition [%] (OCT3; [12]): 21.1% | (S,S)-Ethambutol inhibition [%] (OCT3; [11]): -5.7% | ASP+ inhibition [%] (OCT3; [1]): -8.3%

COc1ccc(CCN(C)CCC[C@@](C#N)(c2ccc(OC)c(OC)c2)C(C)C)cc1OC [(S)-Verapamil]
inhibition at 20 µM (OCT3; [5]): 57.6% | inhibition at 20 µM (OCT3; [6]): 70.7% | inhibition at 20 µM (OCT3; [4]): 20.8%

CCN1CCCC1CNC(=O)c1cc(S(=O)(=O)CC)c(N)cc1OC (stereo not shown) [Amisulpride]
difference between enantiomers in the inhibition of OCT2 (in words) (OCT2; ASP+ screening, 20 μM inhibitor): noticeable differences | x-fold Stereoselectivity (OCT2; [13]): 3.2 fold

C#CCN(C)C(C)Cc1ccccc1 (stereo not shown) [Deprenyl]
x-fold Stereoselectivity (OCT2; human, pH 7.4): 1.4 fold

CN(C)CCOC(C)(c1ccccc1)c1ccccn1 (stereo not shown) [Doxylamine]
selectivity ratio at 5 min (OCT1; human): 1.4

OCC(O)CN1CCN(c2ccccc2)CC1 (stereo not shown) [Dropropizine]
x-fold Stereoselectivity (OCT2; [13]): 1.4 fold

O=C1c2cccc3c2[C@H](CCC3)CN1[C@@H]1CN2CCC1CC2 [Palonosetron]
stereoselectivity in the inhibition of OCT2 (in words) (OCT2; ASP+ uptake, reduced inhibitor concentrations (Figure S4)): relevant stereoselectivity | selectivity ratio at 5 min (OCT2; human, pH 7.4): 3.2 | x-fold Stereoselectivity (OCT3; OCT3): 2.5 fold

CCCN[C@H]1CCc2nc(N)sc2C1 [Pramipexole]
selectivity ratio at 5 min (OCT2; human, pH 7.4): 4 | selectivity ratio at 5 min (OCT1; human): 1.6

CC(C)(C)NC[C@H](O)COc1nsnc1N1CCOCC1 [Timolol]
selectivity ratio at 5 min (OCT2; human, pH 7.4): 2

CN(C)CCc1c[nH]c2ccc(C[C@H]3COC(=O)N3)cc12 [Zolmitriptan]
x-fold Stereoselectivity (OCT3; OCT3): 25 fold | stereoselective inhibition of OCT3 (in words) (OCT3; ethambutol and zolmitriptan as substrates, 20 μM inhibitor): stereoselective inhibition
